Measured values as given in patent US4757012A, “Ascorbic acid intermediates and process enzymes” (Genentech, Inc., priority 1984, dated 1988).

Biological target: T1, 2,5-DKG reductase (Corynebacterium sp., UniProt P06632)
T1 construct: made in house; host or cells: Corynebacterium sp; ATCC 31090 (natural producer, native enzyme purified from cell paste, not recombinant)
Test: 2,5-DKG reductase kinetic / substrate specificity assay with purified enzyme
Assay type: biochemical, Corynebacterium sp. ATCC 31090
Settings: for Activity of the enzyme with the substance as substrate or cofactor: substrate specificity and cofactor requirements
Description: The following assay conditions were used to determine kinetic parameters: […]

T1 sequence (P06632 whole entry): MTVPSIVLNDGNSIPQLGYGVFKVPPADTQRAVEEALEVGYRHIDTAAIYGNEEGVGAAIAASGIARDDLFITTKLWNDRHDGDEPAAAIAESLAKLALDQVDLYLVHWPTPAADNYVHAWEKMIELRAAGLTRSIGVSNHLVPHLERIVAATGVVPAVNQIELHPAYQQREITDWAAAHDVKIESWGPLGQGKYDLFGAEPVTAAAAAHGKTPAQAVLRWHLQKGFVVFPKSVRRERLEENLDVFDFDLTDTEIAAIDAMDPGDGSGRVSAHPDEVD

Structure (SMILES) | Alteration of enzyme activity in the presence of the substance | Activity of the enzyme with the substance as substrate or cofactor
[Ca+2] [Ca^++] | No alteration of activity | –
Nc1ncnc2c1ncn2[C@@H]1O[C@H](COP(=O)(O)OP(=O)(O)OP(=O)(O)O)[C@@H](O)[C@H]1O [ATP] | No alteration of activity | –
N[C@@H](CS)C(=O)O [cysteine] | No alteration of activity | –
O=C(O)[C@H](O)[C@@H](O)[C@H](O)[C@H](O)CO [D-gluconic acid] | – | No activity
O=C(O)C(=O)[C@@H](O)[C@H](O)[C@H](O)CO [2-KDG, 2-keto-D-gluconic acid] | – | No activity
Nc1ncnc2c1ncn2[C@@H]1O[C@H](COP(=O)(O)OP(=O)(O)O)[C@@H](O)[C@H]1O [ADP] | No alteration of activity | –
O=C(O)C(=O)[C@@H](O)[C@H](O)[C@@H](O)CO [2-KLG, 2-keto-L-gulonic acid] | – | No activity
[Mg+2] [Mg^++] | No alteration of activity | –
NC(=O)C1=CN([C@@H]2O[C@H](COP(=O)(O)OP(=O)(O)OC[C@H]3O[C@@H](n4cnc5c(N)ncnc54)[C@H](O)[C@@H]3O)[C@@H](O)[C@H]2O)C=CC1 [NADH] | – | No activity
O=C(O)CN(CCN(CC(=O)O)CC(=O)O)CC(=O)O [EDTA] | No alteration of activity | –
O=C(CO)[C@@H](O)[C@H](O)[C@@H](O)C(=O)O [5-KDG, 5-keto-D-gluconic acid] | – | No activity
[Zn+2] [Zn^++] | No alteration of activity | –
[Mn+2] [MN^++] | No alteration of activity | –
